# Assay results taken from article PMC12323621, “Exploring the antimicrobial activity of pantothenamides against uropathogenic Escherichia coli” (Microbiology Spectrum, 2025).
# Read-outs that look alike come from different tables or passages of the source.
# Assays:
# [1] = tested on: UTI; design: method as in PMID 38376151; conditions: in vivo ascending UTI prophylaxis model; cited from earlier work
# [2] = tested on: UPEC strain CFT073; test: Antimicrobial susceptibility assay, UPEC grown in MOPS-glycerol; assay type: cell-based, Escherichia coli; conditions: for MIC: Escherichia coli; for MIC / MIC MOPS-glycerol: UPEC CFT073 grown in MOPS-glycerol, 24 h, ± standard error; for fold increase in MIC (less potent) compared with 1 / activity against UPEC, highest concentration without activity: MOPS-glycerol
# From the text: (§1) Unless otherwise noted, all reagents were obtained from commercial sources. BAP, 1, and N5-Pan analogs were synthesized according to previously reported procedures ([31], [53]). Urine was self-collected from adult males and females (not menstruating) between 24 and 57 years old (recruitment was open to donors 18–65 years old), who had not used anti-infectives or cranberry products for at least 7 days prior to collection. The collection protocol was approved by the Johns Hopkins University Institutional Review Boards under IRB study NA_00085130. Informed, written consent was obtained from all participants prior to collection. Urine was collected from at least 7 participants over 14 days, stored at 4°C upon collection, and then pooled, filter-sterilized, and frozen at −20°C. Urine Batch A included five male and three female donors with an average age of 33 years (range: 24–57). Urine Batch B included four male and five female donors with an average age of 26 years (range: 24–43). Samples from two donors (donations made at least 30 days apart) were included in both Batch A and Batch B. Urine Batch C included four male and three female donors with an average age of 27 years (range: 24–36). Urine Batch D included four male and three female donors with an average age of 27 years (range: 25–35). Solid urine agar plates were prepared by supplementing cooled 1.5% (wt/vol) agar with filter-sterilized urine in a 4:1 ratio. Liquid MOPS-glycerol was prepared by adding 10 × 3-(N-morpholino)propanesulfonic acid (MOPS) Buffer (Teknova) to water to a final 1× concentration, 1.32 mM K2HPO4, and 0.4% (vol/vol) glycerol and then filter-sterilizing. Unless otherwise noted, all media were supplemented with freshly prepared 20 µM FeSO4. OD600 analyses were performed on Mettler-Toledo UV5Bio UV/Visible spectrophotometer (Columbus, Ohio, USA). For antimicrobial studies, uropathogenic E. coli strain CFT073 (ATCC: BAA-2503) was provided by Kevin Schwartz from the lab of Rodney Welch. All manipulation of UPEC was conducted in a certified biosafety level 2 (BSL-2) laboratory while using BSL-2-associated safety procedures. Antimicrobial data were collected on a Biotek Epoch 2 microplate reader or a Biotek Synergy Neo 2 microplate reader. For metabolic stability studies, losartan potassium (PHR1602), used as an internal standard, was bought from Millipore Sigma (Burlington, MA). Methanol (A456-4) and acetonitrile (A955-4) were purchased from Fisher Chemical (Pittsburgh, PA). Water (9831-03) was purchased from JT Baker (Philipsburg, NJ). Dimethyl sulfoxide (DMSO)(154938-500mL) was purchased from Sigma Aldrich (St. Louis, MO). Mouse plasma (WT) was purchased from Innovative Research (Novi, MI). Mouse liver microsomes (M1000) were purchased from XenoTech LLC (Kansas City, KS).
# (§2) All antimicrobial susceptibility assays were conducted as previously described using an aseptic technique with some modification ([7]). Briefly, 3–5 isolated colonies of CFT073 on LB agar or pooled urine agar were inoculated into 3 mL of liquid MOPS-glycerol medium or pooled urine, respectively, and grown overnight with shaking at 37°C. Saturated cultures were diluted 1:50 in fresh medium and grown to an OD600 of 0.4. These exponential phase cultures were then diluted 1:1,000 into fresh medium to yield the experimental inoculum, which was mixed 1:1 with medium containing 1 or N5-Pan analog at twice the desired final concentration in 96-well plates. The final concentration of bacteria in each well was approximately 10^5 CFU/mL in a final volume of 200 µL. The concentration ranges of compounds evaluated in MOPS-glycerol were: 1 (0–312.5 μM), 2 (0–100 μM), 3 (0–500 μM), 4–5 (0–2,000 μM), 6–7 (0–100 μM), and 8–12 (0-2,000 μM). Analogs 1, 6, and 7 were evaluated over a range of 0–4,000 μM in four batches of pooled human urine. The OD600 was monitored for 24 h (MOPS-glycerol) or 16 h (pooled urine) at 37°C with periodic shaking. […]
# [3] = tested on: E. coli; design: method as in PMID 29332383; conditions: cited from earlier work
# [4] = tested on: serum pantetheinases; conditions: cited from earlier work
# [5] = tested on: UPEC strain CFT073; test: Antimicrobial susceptibility assay, UPEC grown in pooled human urine; assay type: cell-based, Escherichia coli
# From the text: as §1, §2
# [6] = Phase I metabolic stability in mouse liver microsomes; assay type: in vitro ADME; conditions: for remaining at 1 h, 1 µM: mouse, liver microsomes, pH 7.4, 1 h, 1 µM compound, 0.2 mg/mL microsomes
# Protocol: (§3) Stability studies were conducted in mouse liver microsomes, mouse liver tissue homogenate, and CD1 mouse plasma as previously described with minor modifications ([54][–][56]). Briefly, for Phase I mouse liver microsome stability, reactions were carried out with 200 mM potassium phosphate buffer, pH 7.4, with or without an NADPH-regenerating system (1.3 mM NADPH, 3.3 mM glucose 6-phosphate, 3.3 mM MgCl2, 0.4 U/mL glucose-6-phosphate dehydrogenase, and 50 µM sodium citrate). Reactions, in triplicate, were initiated by the addition of liver microsomes to the incubation mixture (compound final concentration was 1 µM; 0.2 mg/mL microsomes) and incubated at 37°C for the desired incubation time. For liver stability, the tissue homogenate was prepared by washing tissues with diluted 10-fold 0.1 M potassium phosphate buffer and homogenized using a probe sonicator over ice. To evaluate the stability of the drugs over time, each of the crude homogenates was aliquoted to 1 mL and then spiked with a final assay concentration of 10 µM of each drug, followed by incubation in an orbital shaker at 37°C for 1 h (in triplicate). For plasma stability, 1 mL of plasma was spiked with 10 µM of each drug, followed by incubation in an orbital shaker at 37°C for 1 h (in triplicate). Samples from each metabolism study were quenched with 3× volume of acetonitrile containing internal standard (losartan: 0.5 µM) at the desired incubation times. […] Samples were vortex-mixed for 30 s and centrifuged at 10,000 × g for 10 min at 4°C. Compound disappearance over time was monitored using a Dionex ultra-high-performance liquid chromatography system consisting of an analytical pump and an autosampler coupled with Q Exactive Focus orbitrap mass spectrometer (Thermo Fisher Scientific Inc., Waltham MA). […] The mobile phase used was composed of 0.1% formic acid in water and 0.1% formic acid in acetonitrile with gradient elution. The total run time for each analyte was 5 min.
# (§4) The mass spectrometer was operated with a HESI ion source in positive ionization mode where compounds were identified in the full scan mode (from m/z 75.00–1125.00) and controlled by the Xcalibur software 4.0.27.13 (Thermo Scientific). Data were acquired using Xcalibur software. Drugs were identified in the full-scan mode (from m/z 75.00 to 1125.00) by comparing t = 0 samples with t = 30 or 60 min samples, and structures were proposed based on the accurate mass information. The percentage of compound remaining for pantothenamides 1, 6, and 7 was determined from the analyte/internal standard (IS) area ratios obtained at t = 30 or 60 min relative to the mean ratios obtained at t = 0 min and calculated using equation 1:
# (§5) % Remaining=(Peak area of Analyte/Preak area of ISat t=30 or 60 min/MeanPeak area of Analyte/Peak area of ISat t=0 min)×100
# [7] = Stability in mouse liver homogenate; assay type: in vitro ADME
# Protocol: as §3, §4, §5
# [8] = Stability in mouse plasma; assay type: in vitro ADME
# Protocol: as §3, §4, §5
structure (smiles),measurement,setting,value
"CCCCOP(=O)(O)C(C)=O [BAP, butylacetylphosphonate]",protection of mice against UTI,[1],partially protects
CCCCNC(=O)CCNC(=O)[C@H](O)C(C)(C)CO [compound 2],MIC,[2],4 µM
same,MIC MOPS-glycerol,[2],4 ± 1 µM
CCCCCCCNC(=O)CCNC(=O)[C@H](O)C(C)(C)CO [compound 3],MIC,[2],26 µM
same,fold increase in MIC (less potent) compared with 1,[2],~ 10 fold
same,MIC MOPS-glycerol,[2],26 ± 5 µM
"CCCCCN(C)C(=O)CCNC(=O)[C@H](O)C(C)(C)CO [compound 4, N-methyl N5-Pan]",MIC,[2],> 2000 µM
same,"activity against UPEC, highest concentration without activity",[2],> 2 mM
"CCCCCCCN(C)C(=O)CCNC(=O)[C@H](O)C(C)(C)CO [compound 5, N-methyl N7-Pan]",MIC,[2],> 2000 µM
same,"activity against UPEC, highest concentration without activity",[2],similarly inactive
same,activity against E. coli,[3],inactive
same,pantetheinase resistance,[4],pantetheinase-resistant
CCCCCC(=O)NCCNC(=O)[C@H](O)C(C)(C)CO [compound 7],MIC,[2],12.5 µM
same,MIC MOPS-glycerol,[2],12.5 ± 0.00 µM
same,MIC,"[5]; Escherichia coli, UPEC CFT073, all urine batches A-D, read-out: MIC across four batches of pooled urine",≥ 4000 µM
same,MIC,"[5]; UPEC CFT073, urine batch A, read-out: MIC in pooled human urine, urine batch A",> 4000 µM
same,MIC,"[5]; UPEC CFT073, urine batch B, read-out: MIC in pooled human urine, urine batch B",4000 µM
same,"remaining at 1 h, 1 µM","[6]; with NADPH, read-out: % remaining in mouse liver microsomes, presence of NADPH",87%
same,"remaining at 1 h, 1 µM","[6]; without NADPH, read-out: % remaining in mouse liver microsomes, absence of NADPH",87%
same,stability in mouse liver microsomes,[6]; n = 3,good stability
same,% remaining in mouse liver homogenate,"[7]; 1 h, 10% wt/vol homogenate, 10 µM compound, 37°C",no degradation
same,stability in mouse liver homogenate,[7]; n = 3,good stability
same,"remaining at 1 h, 10 µM","[8]; CD1, mouse, plasma, 1 h, 10 µM compound, 37°C",93%
same,stability in mouse plasma,[8]; n = 3,good stability
same,stability in the presence of serum pantetheinases,[4],stable
CC(C)(CO)[C@@H](O)C(=O)NCCC(=O)NCc1ccccn1 [compound 8],MIC,[2],68 µM
same,fold increase in MIC (less potent) compared with 1,[2],~ 28 fold
same,MIC MOPS-glycerol,[2],68 ± 32 µM
CC(C)(CO)[C@@H](O)C(=O)NCCC(=O)NCc1cccnc1 [compound 9],MIC,[2],2000 µM
CC(C)(CO)[C@@H](O)C(=O)NCCC(=O)NCc1ccncc1 [compound 10],MIC,[2],> 2000 µM
CC(NC(=O)CCNC(=O)[C@H](O)C(C)(C)CO)c1cccnc1 (some centres unmarked) [compound 11],MIC,[2],> 2000 µM
CN(Cc1cccnc1)C(=O)CCNC(=O)[C@H](O)C(C)(C)CO [compound 12],MIC,[2],> 2000 µM
